Results reported in US20090291938A1 (TAKEDA PHARMACEUTICAL COMPANY LIMITED, priority 2007, published 2009).

These molecules were tested on HT29 human colorectal adenocarcinoma cell line (assay: cell proliferation assay (Cell Titer-Glo luminescent cell viability assay)). Conditions: HT-29, 72 h, read-out: pIC50 (converted).
Assay type: cell-based
In short: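 Cells grown in DMEM with 10% FBS and exposed to compounds for 72 h. Viability read by CellTiter-Glo luminescence, expressed as percentage of DMSO-treated cells.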

Row | Compound | IC50 [nM]
1 | COc1cc(C(=O)NC2CCN(C)CC2)ccc1Nc1ncc2c(n1)N(C1CCCC1)CC1(CCC1)C(=O)N2C [Compound 179, 4-(9′-Cyclopentyl-5′-methyl-6′-oxo-5′,6′,8′,9′-tetrahydrospiro[cyclobutane-1,7′-pyrimido[4,5-b][1,4]diazepine]-2′-ylamino)-3-methoxy-N-(1-methylpiperidin-4-yl)benzamide] | < 1

Same assay, conditions: HT-29, cell proliferative assay, HT29 cells, 72 hr treatment, values given as ranges, read-out: pIC50 (converted)

Row | Compound | IC50 [nM]
2 | COc1cc(C(=O)NC2CCN(C)CC2)ccc1Nc1ncc2c(n1)N(C1CCCCC1)CC(C1CC1)C(=O)N2C (stereo not drawn) [Compound 156, 4-(9-cyclohexyl-7-cyclopropyl-5-methyl-6-oxo-6,7,8,9-tetrahydro-5H-pyrimido[4,5-b][1,4]diazepin-2-ylamino)-3-methoxy-N-(1-methylpiperidin-4-yl)benzamide] | > 10
3 | COc1cc(C(=O)NC2CN(C)C2)ccc1Nc1ncc2c(n1)N(C1CCCCC1)CC(C1CC1)C(=O)N2C (stereo not drawn) [Compound 157, 4-(9-cyclohexyl-7-cyclopropyl-5-methyl-6-oxo-6,7,8,9-tetrahydro-5H-pyrimido[4,5-b][1,4]diazepin-2-ylamino)-3-methoxy-N-(1-methylazetidin-3-yl)benzamide] | > 10
4 | COc1cc(C(=O)NC2CN(C)C2)ccc1Nc1ncc2c(n1)N(C1CCCC1)CC1(CC1)C(=O)N2C [Compound 163, 4-(9′-cyclopentyl-5′-methyl-6′-oxo-5′,6′,8′,9′-tetrahydrospiro[cyclopropane-1,7′-pyrimido[4,5-b][1,4]diazepine]-2′-ylamino)-3-methoxy-N-(1-methylazetidin-3-yl)benzamide] | 1 to 2.51
5 | COc1cc(C(=O)N[C@H]2CCCN(C)C2)ccc1Nc1ncc2c(n1)N(C1CCCC1)CC1(CC1)C(=O)N2C [Compound 164, (S)-4-(9′-cyclopentyl-5′-methyl-6′-oxo-5′,6′,8′,9′-tetrahydrospiro-[cyclopropane-1,7′-pyrimido[4,5-b][1,4]diazepine]-2′-ylamino)-3-methoxy-N-(1-methylpiperidin-3-yl)benzamide] | 1 to 2.51
6 | COc1cc(C(=O)N[C@@H]2CCCN(C)C2)ccc1Nc1ncc2c(n1)N(C1CCCC1)CC1(CC1)C(=O)N2C [Compound 165, (R)-4-(9′-cyclopentyl-5′-methyl-6′-oxo-5′,6′,8′,9′-tetrahydrospiro[cyclopropane-1,7′-pyrimido[4,5-b][1,4]diazepine]-2′-ylamino)-3-methoxy-N-(1-methylpiperidin-3-yl)benzamide] | 1 to 2.51
7 | COc1cc(C(=O)N[C@H]2CCCNC2)ccc1Nc1ncc2c(n1)N(C1CCCC1)CC1(CC1)C(=O)N2C [Compound 166, (S)-4-(9′-cyclopentyl-5′-methyl-6′-oxo-5′,6′,8′,9′-tetrahydrospiro[cyclopropane-1,7′-pyrimido[4,5-b][1,4]diazepine]-2′-ylamino)-3-methoxy-N-(piperidin-3-yl)benzamide] | 1 to 2.51
8 | COc1cc(C(=O)N[C@H]2CCN(C)C2)ccc1Nc1ncc2c(n1)N(C1CCCC1)CC1(CC1)C(=O)N2C [Compound 167, (S)-4-(9′-cyclopentyl-5′-methyl-6′-oxo-5′,6′,8′,9′-tetrahydrospiro[cyclopropane-1,7′-pyrimido[4,5-b][1,4]diazepine]-2′-ylamino)-3-methoxy-N-(1-methylpyrrolidin-3-yl)benzamide] | 3.16 to 10
9 | COc1cc(C(=O)NN2CCN(C)CC2)ccc1Nc1ncc2c(n1)N(C1CCCC1)CC1(CC1)C(=O)N2C [Compound 168, 4-(9′-cyclopentyl-5′-methyl-6′-oxo-5′,6′,8′,9′-tetrahydrospiro[cyclopropane-1,7′-pyrimido[4,5-b][1,4]diazepine]-2′-ylamino)-3-methoxy-N-(4-methylpiperazin-1-yl)benzamide] | 1 to 2.51
10 | COc1cc(C(=O)NC2CCN(C)CC2)ccc1Nc1ncc2c(n1)N(C1CCCCC1)CC1(CC1)C(=O)N2C [Compound 169, 4-(9′-cyclohexyl-5′-methyl-6′-oxo-5′,6′,8′,9′-tetrahydrospiro[cyclopropane-1,7′-pyrimido[4,5-b][1,4]diazepine]-2′-ylamino)-3-methoxy-N-(1-methylpiperidin-4-yl)benzamide] | 1 to 2.51
11 | COc1cc(C(=O)NN2CCN(C)CC2)ccc1Nc1ncc2c(n1)N(C1CCCCC1)CC1(CC1)C(=O)N2C [Compound 170, 4-(9′-cyclohexyl-5′-methyl-6′-oxo-5′,6′,8′,9′-tetrahydrospiro[cyclopropane-1,7′-pyrimido[4,5-b][1,4]diazepine]-2′-ylamino)-3-methoxy-N-(4-methylpiperazin-1-yl)benzamide] | < 1
12 | COc1cc(C(=O)N[C@H]2CCCN(C)C2)ccc1Nc1ncc2c(n1)N(C1CCCCC1)CC1(CC1)C(=O)N2C [Compound 171, (S)-4-(9′-cyclohexyl-5′-methyl-6′-oxo-5′,6′,8′,9′-tetrahydrospiro[cyclopropane-1,7′-pyrimido[4,5-b][1,4]diazepine]-2′-ylamino)-3-methoxy-N-(1-methylpiperidin-3-yl)-benzamide] | < 1
13 | COc1cc(C(=O)N[C@@H]2CCCN(C)C2)ccc1Nc1ncc2c(n1)N(C1CCCCC1)CC1(CC1)C(=O)N2C [Compound 172, (R)-4-(9′-cyclohexyl-5′-methyl-6′-oxo-5′,6′,8′,9′-tetrahydrospiro[cyclopropane-1,7′-pyrimido[4,5-b][1,4]diazepine]-2′-ylamino)-3-methoxy-N-(1-methylpiperidin-3-yl)benzamide] | 1 to 2.51
14 | COc1cc(C(=O)NC2CN(C)C2)ccc1Nc1ncc2c(n1)N(C1CCCCC1)CC1(CC1)C(=O)N2C [Compound 173, 4-(9′-cyclohexyl-5′-methyl-6′-oxo-5′,6′,8′,9′-tetrahydrospiro[cyclopropane-1,7′-pyrimido[4,5-b][1,4]diazepine]-2′-ylamino)-3-methoxy-N-(1-methylazetidin-3-yl)benzamide] | 1 to 2.51
15 | COc1cc(C(=O)N[C@H]2CCCNC2)ccc1Nc1ncc2c(n1)N(C1CCCCC1)CC1(CC1)C(=O)N2C [Compound 174, (S)-4-(9′-cyclohexyl-5′-methyl-6′-oxo-5′,6′,8′,9′-tetrahydrospiro[cyclopropane-1,7′-pyrimido[4,5-b][1,4]diazepine]-2′-ylamino)-3-methoxy-N-(piperidin-3-yl)benzamide] | 1 to 2.51
16 | COc1cc(C(=O)N[C@@H]2CCCNC2)ccc1Nc1ncc2c(n1)N(C1CCCCC1)CC1(CC1)C(=O)N2C [Compound 175, (R)-4-(9′-cyclohexyl-5′-methyl-6′-oxo-5′,6′,8′,9′-tetrahydrospiro [cyclopropane-1,7′-pyrimido[4,5-b][1,4]diazepine]-2′-ylamino)-3-methoxy-N-(piperidin-3-yl)benzamide] | < 1
17 | CCN1CCC(NC(=O)c2ccc(Nc3ncc4c(n3)N(C3CCCCC3)CC3(CC3)C(=O)N4C)c(OC)c2)CC1 [Compound 176, 4-(9′-cyclohexyl-5′-methyl-6′-oxo-5′,6′,8′,9′-tetrahydrospiro[cyclopropane-1,7′-pyrimido[4,5-b][1,4]diazepine]-2′-ylamino)-N-(1-ethylpiperidin-4-yl)-3-methoxybenzamide] | > 10
18 | COc1cc(C(=O)NC2CCN(C)CC2)ccc1Nc1ncc2c(n1)N(C1CCCC1C)CC1(CC1)C(=O)N2C (stereo not drawn) [Compound 177, 3-methoxy-4-(5′-methyl-9′-(2-methylcyclopentyl)-6′-oxo-5′,6′,8′,9′-tetrahydrospiro[cyclopropane-1,7′-pyrimido[4,5-b][1,4]diazepine]-2′-ylamino)-N-(1-methylpiperidin-4-yl)benzamide] | < 1
